According to US20250353891A1 (MEDIMMUNE LIMITED, priority 2022, published 2025):
Starred links: 1 amine or outer side, 2 acyl side, 3 side chain; linkers in the order of their positions; H or OH if unused. Non-standard residues stand in square brackets, D forms with d. Residues, ends and D or L forms follow the SMILES beside them. Groups on a side chain read outwards from the residue. *: point of attachment. C20 diacid = O=C(O)CCCCCCCCCCCCCCCCCCC(=O)*; C18 diacid = O=C(O)CCCCCCCCCCCCCCCCC(=O)*; γGlu = O=C(O)[C@H](CCC(=O)[*:2])N[*:1]; αMeF = C[C@](N)(Cc1ccccc1)C(=O)O; AEEA = NCCOCCOCC(=O)O; Aib = CC(C)(N)C(=O)O

Experiments:
[1] = biological target: human glucagon receptor (hGCGR) (Homo sapiens, UniProt P47871); assay: cAMP production (HTRF) in CHO cells expressing hGCGR; format: cell-based; design: expressed in transfected cells; settings: Table 7, peptides modified at position 20; cAMP in CHO hGCGR cells; geometric mean; read-out: hGluc-R EC50
In short: (§1)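 Potency values represent EC50 from 4-parameter logistic curves of HTRF % Delta F signal. Receptor-expressing CHO cells (hGCGR 2×10^5 cells/mL, hGLP-1R 1×10^5 cells/mL) were exposed for 30 min at room temperature before two-step cAMP detection.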

[2] = biological target: human GLP-1 receptor (hGLP-1R) (Homo sapiens, UniProt P43220); assay: cAMP production (HTRF) in CHO cells expressing hGLP-1R; format: cell-based; design: expressed in transfected cells; settings: for EC50: Table 7, peptides modified at position 20, cAMP in CHO hGLP-1R cells, geometric mean, read-out: hGLP-1R EC50; for % Relative Potency Ratio: Table 7, % GLP-1R activity relative to GLP-1 / % GlucR activity relative to glucagon
In short: as §1

Chain of human glucagon receptor (hGCGR) (P47871 26-477): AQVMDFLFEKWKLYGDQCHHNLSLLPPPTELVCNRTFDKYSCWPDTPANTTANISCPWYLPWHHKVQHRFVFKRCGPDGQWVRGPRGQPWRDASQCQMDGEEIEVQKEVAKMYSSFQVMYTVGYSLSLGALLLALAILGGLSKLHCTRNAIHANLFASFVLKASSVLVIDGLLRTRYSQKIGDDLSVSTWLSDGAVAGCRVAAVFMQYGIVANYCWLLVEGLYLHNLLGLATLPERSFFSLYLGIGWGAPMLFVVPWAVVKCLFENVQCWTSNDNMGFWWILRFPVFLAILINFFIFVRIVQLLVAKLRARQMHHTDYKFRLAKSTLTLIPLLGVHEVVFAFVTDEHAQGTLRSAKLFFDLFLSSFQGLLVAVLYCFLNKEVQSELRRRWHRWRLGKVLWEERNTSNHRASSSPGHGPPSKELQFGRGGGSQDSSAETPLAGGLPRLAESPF
Chain of human GLP-1 receptor (hGLP-1R) (P43220 24-463): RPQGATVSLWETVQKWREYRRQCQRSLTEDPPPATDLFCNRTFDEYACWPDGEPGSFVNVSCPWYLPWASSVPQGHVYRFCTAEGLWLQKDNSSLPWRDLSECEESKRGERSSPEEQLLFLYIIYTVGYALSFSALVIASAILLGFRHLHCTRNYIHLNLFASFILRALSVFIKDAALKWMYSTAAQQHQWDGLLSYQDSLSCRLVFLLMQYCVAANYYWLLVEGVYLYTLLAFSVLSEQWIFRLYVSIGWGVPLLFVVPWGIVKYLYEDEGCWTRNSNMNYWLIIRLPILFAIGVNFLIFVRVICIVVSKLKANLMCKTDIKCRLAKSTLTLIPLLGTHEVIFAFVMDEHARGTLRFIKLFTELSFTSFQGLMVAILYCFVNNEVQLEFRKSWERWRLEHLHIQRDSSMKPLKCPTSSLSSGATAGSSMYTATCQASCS

SMILES | EC50 [1] | EC50 [2] | % Relative Potency Ratio [2]
CC[C@H](C)[C@H](NC(=O)[C@H](CO)NC(=O)[C@H](CCC(=O)O)NC(=O)[C@@H](NC(=O)[C@H](Cc1ccccc1)NC(=O)[C@H](CC(=O)O)NC(=O)[C@H](CCCCNC(=O)CC[C@H](NC(=O)CCCCCCCCCCCCCCCCC(=O)O)C(=O)O)NC(=O)[C@H](C)NC(=O)C(C)(C)NC(=O)[C@H](CCCNC(=N)N)NC(=O)[C@H](CO)NC(=O)[C@H](CC(=O)O)NC(=O)[C@H](CC(C)C)NC(=O)[C@](C)(Cc1ccccc1)NC(=O)[C@H](CCCCN)NC(=O)[C@H](CO)NC(=O)[C@@H](NC(=O)[C@H](CC(=O)O)NC(=O)[C@H](CO)NC(=O)[C@@H](NC(=O)[C@](C)(Cc1ccccc1)NC(=O)[C@H](CO)NC(=O)CNC(=O)[C@H](Cc1c[nH]cn1)NC(=O)C(C)(C)NC(=O)[C@@H](N)Cc1c[nH]cn1)[C@@H](C)O)C(C)C)C(C)C)C(=O)N[C@@H](C)C(=O)N[C@@H](CC(N)=O)C(=O)N[C@H](C(N)=O)[C@@H](C)O [Peptide 254] (H-H[Aib]HGS[αMeF]TSDVSK[αMeF]LDSR[Aib]AK([γGlu-C18 diacid])DFVESIANT-NH2) | 0.125 nM | 0.102 nM | 2.4
CC[C@H](C)[C@H](NC(=O)C(C)(C)NC(=O)[C@H](CCC(N)=O)NC(=O)[C@@H](NC(=O)[C@](C)(Cc1ccccc1)NC(=O)[C@H](CC(=O)O)NC(=O)[C@H](CCCCNC(=O)COCCOCCNC(=O)COCCOCCNC(=O)CC[C@H](NC(=O)CCCCCCCCCCCCCCCCC(=O)O)C(=O)O)NC(=O)[C@H](C)NC(=O)[C@H](C)NC(=O)[C@H](CCC(N)=O)NC(=O)[C@H](CO)NC(=O)[C@H](CC(=O)O)NC(=O)[C@H](CC(C)C)NC(=O)[C@](C)(Cc1ccccc1)NC(=O)[C@H](CCCCN)NC(=O)[C@H](CO)NC(=O)[C@@H](NC(=O)[C@H](CC(=O)O)NC(=O)[C@H](CO)NC(=O)[C@@H](NC(=O)[C@](C)(Cc1ccccc1)NC(=O)[C@H](CO)NC(=O)CNC(=O)[C@H](Cc1c[nH]cn1)NC(=O)C(C)(C)NC(=O)[C@@H](N)Cc1c[nH]cn1)[C@@H](C)O)C(C)C)C(C)C)C(=O)N[C@@H](C)C(=O)N[C@@H](CC(N)=O)C(=O)N[C@H](C(N)=O)[C@@H](C)O [Peptide 255] (H-H[Aib]HGS[αMeF]TSDVSK[αMeF]LDSQAAK([AEEA-AEEA-γGlu-C18 diacid])D[αMeF]VQ[Aib]IANT-NH2; N-terminus assumed) | 0.146 nM | 0.148 nM | 2.0
CC[C@H](C)[C@H](NC(=O)C(C)(C)NC(=O)[C@H](CCC(N)=O)NC(=O)[C@@H](NC(=O)[C@](C)(Cc1ccccc1)NC(=O)[C@H](CC(=O)O)NC(=O)[C@H](CCCCNC(=O)COCCOCCNC(=O)COCCOCCNC(=O)CC[C@H](NC(=O)CC[C@H](NC(=O)CCCCCCCCCCCCCCCCCCC(=O)O)C(=O)O)C(=O)O)NC(=O)[C@H](C)NC(=O)[C@H](C)NC(=O)[C@H](CCC(N)=O)NC(=O)[C@H](CO)NC(=O)[C@H](CC(=O)O)NC(=O)[C@H](CC(C)C)NC(=O)[C@](C)(Cc1ccccc1)NC(=O)[C@H](CCCCN)NC(=O)[C@H](CO)NC(=O)[C@@H](NC(=O)[C@H](CC(=O)O)NC(=O)[C@H](CO)NC(=O)[C@@H](NC(=O)[C@](C)(Cc1ccccc1)NC(=O)[C@H](CO)NC(=O)CNC(=O)[C@H](Cc1c[nH]cn1)NC(=O)C(C)(C)NC(=O)[C@@H](N)Cc1c[nH]cn1)[C@@H](C)O)C(C)C)C(C)C)C(=O)N[C@@H](C)C(=O)N[C@@H](CC(N)=O)C(=O)N[C@H](C(N)=O)[C@@H](C)O [Peptide 256] (H-H[Aib]HGS[αMeF]TSDVSK[αMeF]LDSQAAK([AEEA-AEEA-γGlu-γGlu-C20 diacid])D[αMeF]VQ[Aib]IANT-NH2) | 1.31 nM | 0.346 nM | 7.5
